Patent publication US9815820B2, “Rho kinase inhibitors” (priority 2012, dated 2017)
Entries after “also recorded” stand apart in the source; their conditions may differ.

Experiments:
[1] = test system: human CD4+ T cells; assay: Foxp3 expression in CD4+ T cells after Th17 skewing activation; type: cell-based; conditions: 5 days of Th17 skewing activation
[2] = test system: TGF-β-induced STAT3, MLC and SMAD2/3 phosphorylation; assay: TGF-β-induced phosphorylation of STAT3, MLC and SMAD2/3 in Tregs
[3] = test system: CD4+CD25+ human Tregs; assay: Treg suppression of IL-17 secretion in CD4+CD25- effector T cells; type: cell-based; conditions: Tregs treated 3 hours; Treg:Teff 1:4 and 1:9
[4] = test system: CD4+ human T cells; assay: cytokine secretion in anti-CD3/CD28 stimulated CD4+ T cells in vitro; type: cell-based; conditions: anti-CD3/CD28 stimulation
[5] = test system: CD4+ T cells from RA patients; assay: cytokine secretion ex vivo in CD3/CD28 stimulated CD4+ T cells from RA patients; type: cell-based, human
[6] = test system: STAT3 phosphorylation; assay: STAT3 phosphorylation in T cells; type: cell-based, human
[7] = test system: PBMCs; assay: ex vivo anti-CD3/CD28 stimulation of cytokine production in PBMCs isolated from treated patients; set-up: species or system human; conditions: 120 mg/day on days 1 and 8-14
[8] = test system: CD4+ human T cells; assay: proliferation of T cells in response to TCR stimulation in vitro; type: cell-based; conditions: listed as KD025
[9] = CD4+ T cells from RA patients, ex vivo, listed as KD025

SMILES: CC(C)NC(=O)COc1cccc(-c2nc(Nc3ccc4[nH]ncc4c3)c3ccccc3n2)c1 [SLx-2119]
- percentage of Foxp3+ cells [1]: significantly increased
- phosphorylation of SMAD2/3 [2]: remains intact
- TGF-β-induced MLC phosphorylation ([2]; dose-dependent): down-regulates
- TGF-β-induced STAT3 phosphorylation ([2]; dose-dependent): down-regulates
- ability of Tregs to suppress IL-17 secretion in CD4+CD25- effector T cells [3]: significantly increased
- IFN-γ secretion [4]: less robust and significant only at high dose (10 μM)
- IL-2 secretion [4]: observed only at the highest concentration (10 μM)
- IL-17 secretion ([4]; listed as KD025): inhibits; also recorded: significantly inhibited
- IL-21 secretion ([4]; listed as KD025): inhibits; also recorded: significantly inhibited
- frequencies of IL-17 and IFN-γ-producing cells ([5]; 2 RA patients, intracellular staining): significantly reduced the frequencies
- IFN-γ secretion [5, 9]: inhibits; also recorded: significantly down-regulated
- IL-17 secretion [5, 9]: inhibits; also recorded: significantly down-regulated
- IL-21 secretion [5, 9]: inhibits; also recorded: significantly down-regulated
- STAT3 phosphorylation ([6]; Th17-skewing conditions 5 days, then treatment 3 hours): STAT3 phosphorylation was reduced
- phosphorylation of STAT3, IRF4 and RORγt ([6]; anti-CD3/CD28, TGF-β and IL-1β, 48 hours (FIG. 9C)): reduced phosphorylation of STAT3, as well as IFR4 and RORγT, was confirmed
- phosphorylation of STAT3 ([6]; pre-treatment, then anti-CD3/CD28 stimulation): reduced phosphorylation of STAT3
- IFN-γ in PBMCs [7]: No effect
- induction of IL-17 secretion in PBMCs [7]: significantly inhibited in PBMCs isolated from four of five patients
- induction of IL-21 secretion in PBMCs [7]: significantly inhibited in PBMCs from all five patients
- proliferation in response to TCR stimulation [8]: inhibits; also recorded: down-regulated their ability to proliferate
